{"source": "paper PMC6385813", "about": "“Macrocyclisation of small peptides enabled by oxetane incorporation” (Chemical Science, 2019)", "test": "head-to-tail lactamisation of free linear peptides (H-/-OH), DEPBT (2 equiv), iPr2EtN (2 equiv)", "conditions": "DMF, 1.0 mM, 25.0 °C", "data": [{"compound": "CC(C)C[C@@H]1NC(=O)[C@H](Cc2ccc(O)cc2)NC(=O)[C@H](C)NC2(CNC(=O)[C@H](C)NC1=O)COC2", "note": "[H-Ala-GOx-Ala-Tyr-Leu-OH]", "values": [{"measurement": "ring closure, isolated yield", "setting": "from CC(C)C[C@H](NC(=O)[C@H](Cc1ccc(O)cc1)NC(=O)[C@H](C)NC1(CNC(=O)[C@H](C)N)COC1)C(=O)O, 15-membered ring, 24.0 h", "result": 57, "unit": "%"}]}, {"compound": "CC(C)C[C@@H]1NC(=O)[C@H](Cc2ccc(O)cc2)NC(=O)[C@H](C)NC(=O)CNC(=O)[C@H](C)NC1=O", "note": "[H-Ala-Gly-Ala-Tyr-Leu-OH]", "values": [{"measurement": "ring closure, isolated yield", "setting": "from CC(C)C[C@H](NC(=O)[C@H](Cc1ccc(O)cc1)NC(=O)[C@H](C)NC(=O)CNC(=O)[C@H](C)N)C(=O)O, 15-membered ring, 24.0 h", "result": 40, "unit": "%"}]}, {"compound": "CC(C)C[C@@H]1NC(=O)[C@H](CC(=O)OC(C)(C)C)NC(=O)CNC2(CNC1=O)COC2", "note": "[H-Asp(tBu)-Leu-GOx-Gly-OH]", "values": [{"measurement": "ring closure, isolated yield", "setting": "from CC(C)C[C@H](NC(=O)[C@@H](N)CC(=O)OC(C)(C)C)C(=O)NCC1(NCC(=O)O)COC1, 12-membered ring, 48.0 h", "result": 49, "unit": "%"}]}, {"compound": "CC(C)C[C@@H]1NC(=O)[C@H](CC(=O)OC(C)(C)C)NC(=O)CNC(=O)CNC1=O", "note": "[H-Asp(tBu)-Leu-Gly-Gly-OH]", "values": [{"measurement": "ring closure, isolated yield", "setting": "from CC(C)C[C@H](NC(=O)[C@@H](N)CC(=O)OC(C)(C)C)C(=O)NCC(=O)NCC(=O)O, 12-membered ring, 48.0 h", "result": 14, "unit": "%"}]}, {"compound": "CC(C)C[C@@H]1NC(=O)[C@H]2CCCN2C(=O)CNC2(CNC1=O)COC2", "note": "[H-D-Pro-Leu-GOx-Gly-OH]", "values": [{"measurement": "ring closure, isolated yield", "setting": "from CC(C)C[C@H](NC(=O)[C@H]1CCCN1)C(=O)NCC1(NCC(=O)O)COC1, 12-membered ring, 48.0 h", "result": 54, "unit": "%"}]}, {"compound": "CC(C)C[C@@H]1NC(=O)[C@H]2CCCN2C(=O)CNC(=O)CNC1=O", "note": "[H-D-Pro-Leu-Gly-Gly-OH]", "values": [{"measurement": "ring closure, isolated yield", "setting": "from CC(C)C[C@H](NC(=O)[C@H]1CCCN1)C(=O)NCC(=O)NCC(=O)O, 12-membered ring, 48.0 h", "result": 0, "unit": "%"}]}, {"compound": "CC(C)C[C@@H]1NC(=O)[C@H](Cc2ccc(O)cc2)NC(=O)[C@H](C)NC2(CNC(=O)[C@H](C)NC1=O)COC2", "note": "[H-GOx-Ala-Tyr-Leu-Ala-OH]", "values": [{"measurement": "ring closure, isolated yield", "setting": "from CC(C)C[C@H](NC(=O)[C@H](Cc1ccc(O)cc1)NC(=O)[C@H](C)NC1(CN)COC1)C(=O)N[C@@H](C)C(=O)O, 15-membered ring, 24.0 h", "result": 43, "unit": "%"}]}, {"compound": "CC(C)C[C@@H]1NC(=O)[C@H](Cc2ccc(O)cc2)NC(=O)[C@H](C)NC(=O)CNC(=O)[C@H](C)NC1=O", "note": "[H-Gly-Ala-Tyr-Leu-Ala-OH]", "values": [{"measurement": "ring closure, isolated yield", "setting": "from CC(C)C[C@H](NC(=O)[C@H](Cc1ccc(O)cc1)NC(=O)[C@H](C)NC(=O)CN)C(=O)N[C@@H](C)C(=O)O, 15-membered ring", "result": 30, "unit": "%"}]}, {"compound": "CC(C)C[C@@H]1NC(=O)[C@H](Cc2ccc(O)cc2)NC(=O)[C@H](C)NC(=O)C(C)(C)NC(=O)[C@H](C)NC1=O", "note": "[H-Leu-Ala-Aib-Ala-Tyr-OH]", "values": [{"measurement": "ring closure, isolated yield", "setting": "from CC(C)C[C@H](N)C(=O)N[C@@H](C)C(=O)NC(C)(C)C(=O)N[C@@H](C)C(=O)N[C@@H](Cc1ccc(O)cc1)C(=O)O, 15-membered ring, 24.0 h", "result": 29, "unit": "%"}]}, {"compound": "CC(C)C[C@@H]1NC(=O)[C@H](Cc2ccc(O)cc2)NC(=O)[C@H](C)NC2(CNC(=O)[C@H](C)NC1=O)COC2", "note": "[H-Leu-Ala-GOx-Ala-Tyr-OH]", "values": [{"measurement": "ring closure, isolated yield", "setting": "from CC(C)C[C@H](N)C(=O)N[C@@H](C)C(=O)NCC1(N[C@@H](C)C(=O)N[C@@H](Cc2ccc(O)cc2)C(=O)O)COC1, 15-membered ring, 24.0 h", "result": 51, "unit": "%"}]}, {"compound": "CC(C)C[C@@H]1NC(=O)[C@H](Cc2ccc(O)cc2)NC(=O)[C@@H]2CCCN2C2(CNC(=O)[C@H](C)NC1=O)COC2", "note": "[H-Leu-Ala-GOx-Pro-Tyr-OH]", "values": [{"measurement": "ring closure, isolated yield", "setting": "from CC(C)C[C@H](N)C(=O)N[C@@H](C)C(=O)NCC1(N2CCC[C@H]2C(=O)N[C@@H](Cc2ccc(O)cc2)C(=O)O)COC1, 15-membered ring, 48.0 h", "result": 48, "unit": "%"}]}, {"compound": "CC(C)C[C@@H]1NC(=O)[C@H](Cc2ccc(O)cc2)NC(=O)[C@H](C)NC(=O)CNC(=O)[C@H](C)NC1=O", "note": "[H-Leu-Ala-Gly-Ala-Tyr-OH]", "values": [{"measurement": "ring closure, isolated yield", "setting": "from CC(C)C[C@H](N)C(=O)N[C@@H](C)C(=O)NCC(=O)N[C@@H](C)C(=O)N[C@@H](Cc1ccc(O)cc1)C(=O)O, 15-membered ring, 24.0 h", "result": 31, "unit": "%"}]}, {"compound": "CC(C)C[C@@H]1NC(=O)[C@H](Cc2ccc(O)cc2)NC(=O)[C@@H]2CCCN2C(=O)CNC(=O)[C@H](C)NC1=O", "note": "[H-Leu-Ala-Gly-Pro-Tyr-OH]", "values": [{"measurement": "ring closure, isolated yield", "setting": "from CC(C)C[C@H](N)C(=O)N[C@@H](C)C(=O)NCC(=O)N1CCC[C@H]1C(=O)N[C@@H](Cc1ccc(O)cc1)C(=O)O, 15-membered ring", "result": 13, "unit": "%"}]}, {"compound": "CC(C)C[C@@H]1NC(=O)[C@H](Cc2ccc(O)cc2)NC(=O)[C@H](C)NC(C)(C)CNC(=O)[C@H](C)NC1=O", "note": "[H-Leu-Ala-NHCH2C(Me)2-Ala-Tyr-OH]", "values": [{"measurement": "ring closure, isolated yield", "setting": "from CC(C)C[C@H](N)C(=O)N[C@@H](C)C(=O)NCC(C)(C)N[C@@H](C)C(=O)N[C@@H](Cc1ccc(O)cc1)C(=O)O, 15-membered ring, 24.0 h", "result": 32, "unit": "%"}]}, {"compound": "CC(C)C[C@@H]1NC(=O)[C@H](Cc2ccc(O)cc2)NC(=O)[C@H](C)NCCNC(=O)[C@H](C)NC1=O", "note": "[H-Leu-Ala-NHCH2CH2-Ala-Tyr-OH]", "values": [{"measurement": "ring closure, isolated yield", "setting": "from CC(C)C[C@H](N)C(=O)N[C@@H](C)C(=O)NCCN[C@@H](C)C(=O)N[C@@H](Cc1ccc(O)cc1)C(=O)O, 15-membered ring, 24.0 h", "result": 28, "unit": "%"}]}, {"compound": "CC(C)C[C@@H]1NC(=O)[C@H](Cc2ccc(O)cc2)NC(=O)[C@H](C)NC(=O)CN(C)C(=O)[C@H](C)NC1=O", "note": "[H-Leu-Ala-Sar-Ala-Tyr-OH]", "values": [{"measurement": "ring closure, isolated yield", "setting": "from CC(C)C[C@H](N)C(=O)N[C@@H](C)C(=O)N(C)CC(=O)N[C@@H](C)C(=O)N[C@@H](Cc1ccc(O)cc1)C(=O)O, 15-membered ring, 24.0 h", "result": 36, "unit": "%"}]}, {"compound": "CC(C)C[C@@H]1NC(=O)[C@H](Cc2ccc(O)cc2)NC(=O)[C@H](C)NC(=O)CCNC(=O)[C@H](C)NC1=O", "note": "[H-Leu-Ala-βAla-Ala-Tyr-OH]", "values": [{"measurement": "ring closure, isolated yield", "setting": "from CC(C)C[C@H](N)C(=O)N[C@@H](C)C(=O)NCCC(=O)N[C@@H](C)C(=O)N[C@@H](Cc1ccc(O)cc1)C(=O)O, 16-membered ring, 24.0 h", "result": 39, "unit": "%"}]}, {"compound": "CC(C)C[C@@H]1NC(=O)[C@H](Cc2ccccc2)NC(=O)[C@H]([C@@H](C)OC(C)(C)C)NC2(CNC(=O)[C@H](C(C)C)NC(=O)[C@H](Cc3ccc(OC(C)(C)C)cc3)NC1=O)COC2", "note": "[H-Leu-Tyr(tBu)-Val-GOx-Thr(tBu)-Phe-OH]", "values": [{"measurement": "ring closure, isolated yield", "setting": "from CC(C)C[C@H](N)C(=O)N[C@@H](Cc1ccc(OC(C)(C)C)cc1)C(=O)N[C@H](C(=O)NCC1(N[C@H](C(=O)N[C@@H](Cc2ccccc2)C(=O)O)[C@@H](C)OC(C)(C)C)COC1)C(C)C, 18-membered ring, 48.0 h", "result": 58, "unit": "%"}]}, {"compound": "CC(C)C[C@@H]1NC(=O)[C@H](Cc2c[nH]c3ccccc23)NC(=O)CNC2(COC2)[C@H](C)NC1=O", "note": "[H-Trp-Leu-AOx-Gly-OH]", "values": [{"measurement": "ring closure, isolated yield", "setting": "from CC(C)C[C@H](NC(=O)[C@@H](N)Cc1c[nH]c2ccccc12)C(=O)N[C@@H](C)C1(NCC(=O)O)COC1, 12-membered ring, 48.0 h", "result": 50, "unit": "%"}]}, {"compound": "CC(C)C[C@@H]1NC(=O)[C@H](Cc2c[nH]c3ccccc23)NC(=O)CNC(=O)[C@H](C)NC1=O", "note": "[H-Trp-Leu-Ala-Gly-OH]", "values": [{"measurement": "ring closure, isolated yield", "setting": "from CC(C)C[C@H](NC(=O)[C@@H](N)Cc1c[nH]c2ccccc12)C(=O)N[C@@H](C)C(=O)NCC(=O)O, 12-membered ring, 48.0 h", "result": 21, "unit": "%"}]}, {"compound": "CC(C)C[C@@H]1NC(=O)[C@H](Cc2c[nH]c3ccccc23)NC(=O)CNC2(CNC1=O)COC2", "note": "[H-Trp-Leu-GOx-Gly-OH]", "values": [{"measurement": "ring closure, isolated yield", "setting": "from CC(C)C[C@H](NC(=O)[C@@H](N)Cc1c[nH]c2ccccc12)C(=O)NCC1(NCC(=O)O)COC1, 12-membered ring, 48.0 h", "result": 65, "unit": "%"}]}, {"compound": "CC(C)C[C@@H]1NC(=O)[C@H](Cc2c[nH]c3ccccc23)NC(=O)CNC(=O)CNC1=O", "note": "[H-Trp-Leu-Gly-Gly-OH]", "values": [{"measurement": "ring closure, isolated yield", "setting": "from CC(C)C[C@H](NC(=O)[C@@H](N)Cc1c[nH]c2ccccc12)C(=O)NCC(=O)NCC(=O)O, 12-membered ring, 48.0 h", "result": 15, "unit": "%"}]}, {"compound": "CC(C)C[C@@H]1NC(=O)[C@H](Cc2ccc(O)cc2)NC(=O)[C@H](C)NC2(CNC(=O)[C@H](C)NC1=O)COC2", "note": "[H-Tyr-Leu-Ala-GOx-Ala-OH]", "values": [{"measurement": "ring closure, isolated yield", "setting": "from CC(C)C[C@H](NC(=O)[C@@H](N)Cc1ccc(O)cc1)C(=O)N[C@@H](C)C(=O)NCC1(N[C@@H](C)C(=O)O)COC1, 15-membered ring, 24.0 h", "result": 31, "unit": "%"}]}, {"compound": "CC(C)C[C@@H]1NC(=O)[C@H](Cc2ccc(O)cc2)NC(=O)[C@H](C)NC(=O)CNC(=O)[C@H](C)NC1=O", "note": "[H-Tyr-Leu-Ala-Gly-Ala-OH]", "values": [{"measurement": "ring closure, isolated yield", "setting": "from CC(C)C[C@H](NC(=O)[C@@H](N)Cc1ccc(O)cc1)C(=O)N[C@@H](C)C(=O)NCC(=O)N[C@@H](C)C(=O)O, 15-membered ring", "result": 24, "unit": "%"}]}]}
